This note sets out measurements from patent US20220348558A1, “INHIBITORS OF ENCEPHALITIC ALPHAVIRUSES” (priority 2019, published 2022).

Where only a bound is given, the exact number is not on record here.

A word on the EC50: it is the concentration giving half of the maximal effect.

One test deals with VEEV TC83. Nature of the test: microbe, parasite or virus in culture. Type of test: cell-based. The conditions noted are these: Venezuelan equine encephalitis virus, Vero 76, 48 h, read-out: VEEV TC83 EC50 nM.
In the next test the test system is WEEV California. Nature of the test: microbe, parasite or virus in culture. Type of test: cell-based. The conditions noted are these: Western equine encephalitis virus, Vero 76, 48 h, read-out: WEEV California EC50 nM.

For `Cc1cc(-c2cc(C#N)cc3c(=O)n(-c4cc(F)c(N5CC6(COC6)C5)c(F)c4)c(C4CCCN4)nc23)cc(C)n1` (centres unmarked) [Example 163, 3-(3,5-difluoro-4-(2-oxa-6-azaspiro[3.3]heptan-6-yl)phenyl)-8-(2,6-dimethylpyridin-4-yl)-4-oxo-2-(pyrrolidin-2-yl)-3,4-dihydroquinazoline-6-carbonitrile], the EC50 in the test on VEEV TC83 and with WEEV California was more than 1000 nM each time.

In the case of `COc1ccc(-n2c([C@@H]3C[C@@H](F)CN3)nc3c(C)cc([N+](=O)[O-])cc3c2=O)cc1` [Example 63, 2-((2S,4R)-4-fluoropyrrolidin-2-yl)-3-(4-methoxyphenyl)-8-methyl-6-nitroquinazolin-4 (3H)-one], the EC50 in the test with VEEV TC83 and in the test on WEEV California was more than 1000 nM in each case.

Regarding `COc1cccc(-n2c(C3CCCN3)nc3ccc([N+](=O)[O-])cc3c2=O)c1` (centres unmarked) [Example 32, 3-(3-methoxyphenyl)-6-nitro-2-(pyrrolidin-2-yl)quinazolin-4 (3H)-one], the concentration giving a half-maximal response (EC50) in the test with VEEV TC83 and with WEEV California was more than 1000 nM in each case.

Regarding `COc1ccc(-n2c([C@H]3C[C@H](F)CN3)nc3c(C)cc([N+](=O)[O-])cc3c2=O)cc1F` [Example 62, 2-((2R,4S)-4-fluoropyrrolidin-2-yl)-3-(3-fluoro-4-methoxyphenyl)-8-methyl-6-nitroquinazolin-4 (3H)-one], the EC50 in the test on VEEV TC83 and in the test with WEEV California was 51 to 150 nM throughout.

Regarding `N#Cc1cc(-c2ccc(C(F)(F)F)nc2)c2nc([C@H]3CCCN3)n(-c3ccc(O)c(F)c3)c(=O)c2c1` [Example 168, (R)-3-(3-fluoro-4-hydroxyphenyl)-4-oxo-2-(pyrrolidin-2-yl)-8-(6-(trifluoromethyl)pyridin-3-yl)-3,4-dihydroquinazoline-6-carbonitrile], the concentration for a half-maximal effect (EC50) fell in the range of 51 to 150 nM with VEEV TC83 and 151 to 500 nM with WEEV California.

Take `COc1ccc(-n2c([C@@H]3CCCN3)nc3ccc(F)c(F)c3c2=O)cc1` [Example 30, (S)-5,6-difluoro-3-(4-methoxyphenyl)-2-(pyrrolidin-2-yl) quinazolin-4 (3H)-one]: the EC50 in the test with VEEV TC83 and in the test on WEEV California was more than 1000 nM in each case.

Take `COc1ccc(-n2c([C@H]3CCCN3)nc3c(-c4cncnc4)cc([N+](=O)[O-])cc3c2=O)cc1F` [Example 88, (R)-3-(3-fluoro-4-methoxyphenyl)-6-nitro-8-(pyrimidin-5-yl)-2-(pyrrolidin-2-yl) quinazol-in-4 (3H)-one]: the half-maximal effective concentration (EC50) in the test with VEEV TC83 and in the test on WEEV California was 1 to 50 nM each time.

For `COc1c(F)cc(-n2c(C3CCCN3)nc3c(C#CC(C)(C)O)cc(C#N)cc3c2=O)cc1F` (centres unmarked) [Example 193, 3-(3,5-Difluoro-4-methoxyphenyl)-8-(3-hydroxy-3-methylbut-1-yn-1-yl)-4-oxo-2-(pyrrolidin-2-yl)-3,4-dihydroquinazoline-6-carbonitrile], the EC50 with VEEV TC83 and in the test with WEEV California was 51 to 150 nM in each case.

As to `COc1ccc(-n2c([C@H]3C[C@H](F)CN3)nc3c(C)cc(C#N)cc3c2=O)cc1` [Example 53, 2-((2R,4S)-4-fluoropyrrolidin-2-yl)-3-(4-methoxyphenyl)-8-methyl-4-oxo-3,4-dihydroquinazoline-6-carbonitrile], the EC50 with VEEV TC83 and in the test with WEEV California was 151 to 500 nM in each case.

Turning to `COc1ccc(-n2c([C@H]3Cc4ccccc4N3)nc3c(-c4ccc(C)nc4)cc(C#N)cc3c2=O)cc1F` [Example 128, (R)-3-(3-fluoro-4-methoxyphenyl)-2-(indolin-2-yl)-8-(6-methylpyridin-3-yl)-4-oxo-3,4-dihydroquinazoline-6-carbonitrile], the EC50 with VEEV TC83 lay in the range of 1 to 50 nM; in the test with WEEV California it was 151 to 500 nM.

As to `COc1ccc(-n2c(-c3cn(C)cn3)nc3c(-c4ccc(C)nc4)cc(C#N)cc3c2=O)cc1F` [Example 200, 3-(3-fluoro-4-methoxyphenyl)-2-(1-methyl-1H-imidazol-4-yl)-8-(6-methylpyridin-3-yl)-4-oxo-3,4-dihydroquinazoline-6-carbonitrile], the concentration giving a half-maximal response (EC50) in the test on VEEV TC83 and with WEEV California was more than 1000 nM each time.

Take `COc1c(F)cc(-n2c(C3CCCN3)nc3c(-c4ccc(CO)nc4)cc(C#N)cc3c2=O)cc1F` (centres unmarked) [Example 180, 3-(3,5-difluoro-4-methoxyphenyl)-8-(6-(hydroxymethyl)pyridin-3-yl)-4-oxo-2-(pyrrolidin-2-yl)-3,4-dihydroquinazoline-6-carbonitrile]: the EC50 in the test with VEEV TC83 and in the test with WEEV California was 1 to 50 nM in each case.

As for `COc1ccc(-n2c([C@H](C)N(C)C)nc3ccc([N+](=O)[O-])cc3c2=O)cc1` [Example 208, (S)-2-(1-(dimethylamino)ethyl)-3-(4-methoxyphenyl)-6-nitroquinazolin-4 (3H)-one], the EC50 in the test with VEEV TC83 and with WEEV California was 51 to 150 nM throughout.

Take `COc1ccc(-n2c([C@H]3CCCN3)nc3c(-c4cncc(F)c4)cc(C#N)cc3c2=O)cc1F` [Example 106, (R)-3-(3-fluoro-4-methoxyphenyl)-8-(5-fluoropyridin-3-yl)-4-oxo-2-(pyrrolidin-2-yl)-3,4-dihydroquinazoline-6-carbonitrile]: the EC50 in the test on VEEV TC83 and with WEEV California was 1 to 50 nM throughout.

Regarding `COc1ccc(-n2c([C@H]3C[C@H](O)CN3)nc3c(-c4ccc(C)nc4)cc(C#N)cc3c2=O)cc1F` [Example 122, 3-(3-fluoro-4-methoxyphenyl)-2-((2R,4S)-4-hydroxypyrrolidin-2-yl)-8-(6-methylpyridin-3-yl)-4-oxo-3,4-dihydroquinazoline-6-carbonitrile], the EC50 was in the range of 1 to 50 nM in the test on VEEV TC83 and 51 to 150 nM in the test on WEEV California.

Regarding `COc1ccc(-n2c(C3CCCN3)nc3c(-c4ccc(-c5ccccc5)nc4)cc(C#N)cc3c2=O)cc1F` (centres unmarked) [Example 133, 3-(3-fluoro-4-methoxyphenyl)-4-oxo-8-(6-phenylpyridin-3-yl)-2-(pyrrolidin-2-yl)-3,4-dihydroquinazoline-6-carbonitrile], the EC50 in the test on VEEV TC83 and with WEEV California was 1 to 50 nM in each case.

For `COc1ccc(-n2c(C3CCCN3)nc3c(Cc4ccc(C)nc4)cc(C#N)cc3c2=O)cc1F` (centres unmarked) [Example 187, 3-(3-fluoro-4-methoxyphenyl)-8-((6-methylpyridin-3-yl)methyl)-4-oxo-2-(pyrrolidin-2-yl)-3,4-dihydroquinazoline-6-carbonitrile], the figures for the concentration for a half-maximal effect (EC50) in the test on VEEV TC83 and with WEEV California were 51 to 150 nM and 151 to 500 nM, respectively.

`O=c1c2cc([N+](=O)[O-])ccc2nc([C@H]2CCCN2)n1-c1cccc(OC(F)(F)F)c1` [Example 45, (R)-6-nitro-2-(pyrrolidin-2-yl)-3-(3-(trifluoromethoxy)phenyl)quinazolin-4 (3H)-one]: the EC50 in the test on VEEV TC83 and in the test with WEEV California was more than 1000 nM each time.

In the case of `[N-]=[N+]=Nc1cccc(-n2c([C@H]3CCCN3)nc3ccc([N+](=O)[O-])cc3c2=O)c1` [Example 17, (R)-3-(3-azidophenyl)-6-nitro-2-(pyrrolidin-2-yl) quinazolin-4 (3H)-one], the half-maximal effective concentration (EC50) in the test on VEEV TC83 was 151 to 500 nM; in the test on WEEV California, more than 1000 nM.

With `COc1ccc(-n2c([C@H]3CCCN3)nc3c(C4CC4)cc([N+](=O)[O-])cc3c2=O)cc1` [Example 95, (R)-8-cyclopropyl-3-(4-methoxyphenyl)-6-nitro-2-(pyrrolidin-2-yl) quinazolin-4 (3H)-one], the values for the EC50 with VEEV TC83 and with WEEV California were 1 to 50 nM and 51 to 150 nM, respectively.

Regarding `COc1c(F)cc(-n2c(C34CC(CN3)C4)nc3c(-c4ccnc(C)c4)cc(C#N)cc3c2=O)cc1F` [Example 173, 2-(2-azabicyclo[2.1.1]hexan-1-yl)-3-(3,5-difluoro-4-methoxyphenyl)-8-(2-methylpyridin-4-yl)-4-oxo-3,4-dihydroquinazoline-6-carbonitrile], the EC50 with VEEV TC83 and in the test with WEEV California was 51 to 150 nM each time.

For `COc1ccc(-n2c([C@]3(C)CCCN3)nc3c(-c4ccc(C)nc4)cc(C#N)cc3c2=O)cc1F` [Example 142, (S)-3-(3-fluoro-4-methoxyphenyl)-8-(6-methylpyridin-3-yl)-2-(2-methylpyrrolidin-2-yl)-4-oxo-3,4-dihydroquinazoline-6-carbonitrile], the concentration giving a half-maximal response (EC50) in the test with VEEV TC83 and with WEEV California was 1 to 50 nM each time.

`COc1ccc(-n2c([C@H]3CCCN3)nc3c(C)cc(C#N)cc3c2=O)cc1F` [Example 52, (R)-3-(3-fluoro-4-methoxyphenyl)-8-methyl-4-oxo-2-(pyrrolidin-2-yl)-3,4-dihydroquinazoline-6-carbonitrile]: the EC50 with VEEV TC83 and in the test on WEEV California was 1 to 50 nM in each case.

As for `COc1ccc(-n2c([C@H]3CCCN3)nc3ccc([N+](=O)[O-])cc3c2=O)c(F)c1` [Example 25, (R)-3-(2-fluoro-4-methoxyphenyl)-6-nitro-2-(pyrrolidin-2-yl) quinazolin-4 (3H)-one], the EC50 with VEEV TC83 lay within 51 to 150 nM; with WEEV California, 151 to 500 nM.

Take `COc1ccc(-n2c([C@H]3CCCN3)nc3c(-c4ccncc4)cc(C#N)cc3c2=O)cc1F` [Example 109, (R)-3-(3-fluoro-4-methoxyphenyl)-4-oxo-8-(pyridin-4-yl)-2-(pyrrolidin-2-yl)-3,4-dihydroquinazoline-6-carbonitrile]: the concentration giving a half-maximal response (EC50) in the test on VEEV TC83 and in the test on WEEV California was 1 to 50 nM throughout.

As for `COc1ccc(-n2c(-c3ccccn3)nc3c(-c4ccc(C)nc4)cc(C#N)cc3c2=O)cc1F` [Example 196, 3-(3-fluoro-4-methoxyphenyl)-8-(6-methylpyridin-3-yl)-4-oxo-2-(pyridin-2-yl)-3,4-dihydroquinazoline-6-carbonitrile], the EC50 in the test on VEEV TC83 and in the test with WEEV California was more than 1000 nM in each case.

`N#Cc1cccc(-n2c([C@H]3CCCN3)nc3ccc([N+](=O)[O-])cc3c2=O)c1` [Example 21, (R)-3-(6-nitro-4-oxo-2-(pyrrolidin-2-yl)quinazolin-3 (4H)-yl)benzonitrile]: the EC50 in the test on VEEV TC83 and in the test on WEEV California was more than 1000 nM each time.

Take `COc1ccc(-n2c([C@@H]3CCCN3)nc3c(-c4cccnc4)cc([N+](=O)[O-])cc3c2=O)cc1F` [Example 83, (S)-3-(3-fluoro-4-methoxyphenyl)-6-nitro-8-(pyridin-3-yl)-2-(pyrrolidin-2-yl) quinazolin-4 (3H)-one]: the half-maximal effective concentration (EC50) in the test with VEEV TC83 and in the test with WEEV California was 1 to 50 nM throughout.
